According to PubChem BioAssay AID1963969 (Molecular Pharmacology Branch, DTP, NCI, 2024):

Test system: 817829-284-R-J1-PDC multi-cell spheroid viability
Experiment: Anticancer human tumor 817829-284-R-J1-PDC patient-derived colon adenocarcinoma cell line growth inhibition [PI3K]
Details: for IC50: curve of first compound; for viability, T/C: stronger effect = lower value
In short: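 Multi-cell spheroids combine tumor cells with HUVEC and human MSCs, treated with targeted agents alone or with inavolisib, alpelisib, duvelisib or copanlisib. Concentrations fall in half-log steps from at or near clinical Cmax, or from 10 microM where Cmax is unknown; viability read-out.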
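Further: spheroids exposed to agents for seven days before readout.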
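Wherever viability, T/C is given: percent of vehicle DMSO control viability which is 100%.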

Compound: Cn1cnc2c(F)c(Nc3ccc(Br)cc3Cl)c(C(=O)NOCCO)cc21 + Cc1nc(NC(=O)N2CCCC2C(N)=O)sc1-c1ccnc(C(C)(C)C(F)(F)F)c1
- IC50 (second compound 0.0316 µM): 289 nM
- IC50 (second compound 0.1 µM): 319 nM
- IC50 (second compound 0.316 µM): 160 nM
- IC50 (second compound 1 µM): 135 nM
- IC50 (second compound 3.16 µM): 574 nM
- IC50 (second compound 10 µM): 293 nM
- viability, T/C (second compound 0.0316 µM, first compound 0.00949 µM): 96.6%
- viability, T/C (second compound 0.0316 µM, first compound 0.03 µM): 63%
- viability, T/C (second compound 0.0316 µM, first compound 0.0949 µM): 67.3%
- viability, T/C (second compound 0.0316 µM, first compound 0.3 µM): 44.5%
- viability, T/C (second compound 0.0316 µM, first compound 0.949 µM): 50.2%
- viability, T/C (second compound 0.0316 µM, first compound 3 µM): 22.4%
- viability, T/C (second compound 0.1 µM, first compound 0.00949 µM): 80.8%
- viability, T/C (second compound 0.1 µM, first compound 0.03 µM): 62.1%
- viability, T/C (second compound 0.1 µM, first compound 0.0949 µM): 59.7%
- viability, T/C (second compound 0.1 µM, first compound 0.3 µM): 46.8%
- viability, T/C (second compound 0.1 µM, first compound 0.949 µM): 49.6%
- viability, T/C (second compound 0.1 µM, first compound 3 µM): 31.2%
- viability, T/C (second compound 0.316 µM, first compound 0.00949 µM): 82.2%
- viability, T/C (second compound 0.316 µM, first compound 0.03 µM): 60.4%
- viability, T/C (second compound 0.316 µM, first compound 0.0949 µM): 62.8%
- viability, T/C (second compound 0.316 µM, first compound 0.3 µM): 39.6%
- viability, T/C (second compound 0.316 µM, first compound 0.949 µM): 35.3%
- viability, T/C (second compound 0.316 µM, first compound 3 µM): 22.8%
- viability, T/C (second compound 1 µM, first compound 0.00949 µM): 67.7%
- viability, T/C (second compound 1 µM, first compound 0.03 µM): 44.9%
- viability, T/C (second compound 1 µM, first compound 0.0949 µM): 48.2%
- viability, T/C (second compound 1 µM, first compound 0.3 µM): 62%
- viability, T/C (second compound 1 µM, first compound 0.949 µM): 27.3%
- viability, T/C (second compound 1 µM, first compound 3 µM): 29.4%
- viability, T/C (second compound 3.16 µM, first compound 0.00949 µM): 118%
- viability, T/C (second compound 3.16 µM, first compound 0.03 µM): 88.8%
- viability, T/C (second compound 3.16 µM, first compound 0.0949 µM): 74.1%
- viability, T/C (second compound 3.16 µM, first compound 0.3 µM): 70.2%
- viability, T/C (second compound 3.16 µM, first compound 0.949 µM): 38.8%
- viability, T/C (second compound 3.16 µM, first compound 3 µM): 24.4%
- viability, T/C (second compound 10 µM, first compound 0.00949 µM): 74.8%
- viability, T/C (second compound 10 µM, first compound 0.03 µM): 70%
- viability, T/C (second compound 10 µM, first compound 0.0949 µM): 62.4%
- viability, T/C (second compound 10 µM, first compound 0.3 µM): 50.4%
- viability, T/C (second compound 10 µM, first compound 0.949 µM): 31.1%
- viability, T/C (second compound 10 µM, first compound 3 µM): 11.5%

Compound: Cn1nccc1Nc1nccc(-c2ccn(C(CO)c3ccc(Cl)c(F)c3)c(=O)c2)n1 (centres undefined) + Cc1nc(NC(=O)N2CCCC2C(N)=O)sc1-c1ccnc(C(C)(C)C(F)(F)F)c1
- IC50 (second compound 0.0316 µM): 7870 nM
- IC50 (second compound 0.1 µM): 4800 nM
- IC50 (second compound 0.316 µM): 6440 nM
- IC50 (second compound 1 µM): 4650 nM
- IC50 (second compound 3.16 µM): 4880 nM
- IC50 (second compound 10 µM): 4810 nM
- viability, T/C (second compound 0.0316 µM, first compound 0.0316 µM): 83%
- viability, T/C (second compound 0.0316 µM, first compound 0.1 µM): 66.9%
- viability, T/C (second compound 0.0316 µM, first compound 0.316 µM): 92.2%
- viability, T/C (second compound 0.0316 µM, first compound 1 µM): 90.7%
- viability, T/C (second compound 0.0316 µM, first compound 3.16 µM): 81.6%
- viability, T/C (second compound 0.0316 µM, first compound 10 µM): 41.6%
- viability, T/C (second compound 0.1 µM, first compound 0.0316 µM): 79.8%
- viability, T/C (second compound 0.1 µM, first compound 0.1 µM): 77.3%
- viability, T/C (second compound 0.1 µM, first compound 0.316 µM): 76.3%
- viability, T/C (second compound 0.1 µM, first compound 1 µM): 75.3%
- viability, T/C (second compound 0.1 µM, first compound 3.16 µM): 63.2%
- viability, T/C (second compound 0.1 µM, first compound 10 µM): 26.6%
- viability, T/C (second compound 0.316 µM, first compound 0.0316 µM): 87.8%
- viability, T/C (second compound 0.316 µM, first compound 0.1 µM): 99.5%
- viability, T/C (second compound 0.316 µM, first compound 0.316 µM): 72%
- viability, T/C (second compound 0.316 µM, first compound 1 µM): 74.6%
- viability, T/C (second compound 0.316 µM, first compound 3.16 µM): 81.6%
- viability, T/C (second compound 0.316 µM, first compound 10 µM): 30.6%
- viability, T/C (second compound 1 µM, first compound 0.0316 µM): 68.6%
- viability, T/C (second compound 1 µM, first compound 0.1 µM): 69%
- viability, T/C (second compound 1 µM, first compound 0.316 µM): 62.1%
- viability, T/C (second compound 1 µM, first compound 1 µM): 107%
- viability, T/C (second compound 1 µM, first compound 3.16 µM): 60.9%
- viability, T/C (second compound 1 µM, first compound 10 µM): 28.5%
- viability, T/C (second compound 3.16 µM, first compound 0.0316 µM): 54.2%
- viability, T/C (second compound 3.16 µM, first compound 0.1 µM): 102%
- viability, T/C (second compound 3.16 µM, first compound 0.316 µM): 86.1%
- viability, T/C (second compound 3.16 µM, first compound 1 µM): 87.3%
- viability, T/C (second compound 3.16 µM, first compound 3.16 µM): 67.3%
- viability, T/C (second compound 3.16 µM, first compound 10 µM): 21.6%
- viability, T/C (second compound 10 µM, first compound 0.0316 µM): 109%
- viability, T/C (second compound 10 µM, first compound 0.1 µM): 103%
- viability, T/C (second compound 10 µM, first compound 0.316 µM): 101%
- viability, T/C (second compound 10 µM, first compound 1 µM): 94.2%
- viability, T/C (second compound 10 µM, first compound 3.16 µM): 69%
- viability, T/C (second compound 10 µM, first compound 10 µM): 16.4%
